Results reported in patent publication US11931444B2, “Topical composition” (DSM IP Assets B.V., priority 2018, dated 2024).

Key:
[1] = Particle size by laser diffraction (Malvern Mastersizer 2000) and/or Coulter Delsa Nano S; format: physicochemical
Text: The term ‘mean particle size’ as used herein refers to the mean number-based particle size distribution Dn50 (also known as Dn0.5) as determined by laser diffraction e.g. with a Malvern Mastersizer 2000 (ISO 13320:2009).
All particles sizes have been determined by laser diffraction with a Malvern Mastersizer 2000 according to the method as outlined in ISO 13320:2009 and/or a Coulter Delsa Nano S (dynamic laser scattering).

[2] = Polarity index (interfacial tension of the oil with respect to water); format: physicochemical; conditions: for polarity index: Table 1, printed under the ingredient name; for polarity index mN/m: Table 2
Text: The term “polarity index” is a parameter which is known to the person skilled in the art. The polarity of an oil is defined as the polarity index (interfacial tension) of the oil with respect to water. The interfacial tension, i. e. the polarity index, can be particularly determined using a ring tensiometer (e.g., Krüss K 10), which measures the interfacial tension in mN/m in analogy to the ASTM method D971-99a (2004).

polarity index [2]	polarity index mN/m [2]	Molecule	Particle size Dn50 [1]
–	–	c1ccc2oc(-c3ccc(-c4nc5ccccc5o4)cc3)nc2c1 [DBO-400 (A), 1,4-di(benzoxazol-2′-yl)benzene]	380 nm
11.6 mN/m)	11.6 mN/m	CC(C)OC(=O)CCCCC(=O)OC(C)C [Diiso propyl adipate, Diisopropyl Adipate]	–
(polarity index 43.8 mN/m)	43.8 mN/m	CCCCCCCCCCCCCC(C)C [Isohexadecane]	–
–	36.2 mN/m	Isocetyl Stearate	–
